In patent publication US20160000796A1, “PHARMACEUTICAL COMPOSITION FOR USE IN PREVENTION OR TREATMENT OF CANCER” (priority 2013, published 2016):

Tests used:
[1] = tested on: Kit225 (non-HTLV-1-infected cell line); assay: Cellular proliferation (MTS assay), Kit225; type: cell-based; conditions: 100 μM
Experimental: (§1) Each nucleoside analogue reverse transcriptase inhibitor was added to the medium for cells at a final concentration of 100 μM. Cells were seeded on a 96-well plate at a concentration of 1×10^4 cells/100 μL/well and cultured for 4 hours (Day 0), 48 hours (Day 2) or 96 hours (Day 4). A medium added DMSO (solvent control) alone was used as a control. Cellular proliferation was examined by MTS assay. Specifically, after the cells were cultured for a predetermined time, a reagent for cellular proliferation test, Aqueous One Solution Cell Proliferation (trade name, manufactured by Promega), was added to the cells. Four hours later, absorbance at 490 nm was measured. The cellular proliferation was represented by a ratio relative to that of the control (solvent control) on Day 0 that was regarded as 1.
(§2) This example used non-HTLV-1-infected cell lines: Jurkat (cell line derived from human T-cell leukemia, ATCC No: TIB-152), Kit225 (cell line derived from chronic T-cell leukemia, established in the laboratory of the inventors, Blood. 1987 October; 70 (4): 1069-72.), H9 (cell line derived from cutaneous T-cell lymphoma, ATCC No: HTB-176) and SUDHL6 (cell line derived from diffuse B cell lymphoma).
(§3) The six types of nucleoside analogue reverse transcriptase inhibitors as used in Example 1 were used and cellular proliferation was examined in the same manner as in Example 1.

[2] = tested on: ED40515 (+) (non-virus-producing ATL cell line); assay: Cellular proliferation (MTS assay), ED40515 (+); type: cell-based
Experimental: as §1
This example used HTLV-1-infected cell lines (non-virus-producing ATL cell lines): ED40515 (−), ED40515 (+), and ATL43T (all were provided by Prof. Michiyuki Maeda who produced the cells); and SYK-11L (+) (prepared in the laboratory of the inventors).
The six types of nucleoside analogue reverse transcriptase inhibitors as used in Example 1 were used and cellular proliferation was examined in the same manner as in Example 1. […]

[3] = tested on: H9 (non-HTLV-1-infected cell line); assay: Cellular proliferation (MTS assay), H9; type: cell-based; conditions: 100 μM
Experimental: as §1, §2, §3

[4] = tested on: Rad51, γH2AX and PARP; assay: Induction of DNA repair proteins (immunostaining); type: cell-based; conditions: ED40515 (−) versus Jurkat; 100 μM; 48 hours
Experimental: To an ATL cell line, ED40515 (−), or a non-ATL cell line, Jurkat, DMSO (solvent control) or abacavir was added at a concentration of 100 μM. The cells were cultured for 48 hours. The cells were fixed on slides, immuno-stained for Rad51, γH2AX and PARP, and observed by a fluorescent microscope. At least 70 cells per group were observed and the ratio of cells positive for each protein was calculated. Rad51, which is a homologue of a RecA protein of Escherichia coli, is involved in repair of double-strand DNA break. γH2AX, which is a phosphorylated histone protein, is involved in repair of double-strand DNA break. PARP, which is a poly(ADP-ribose) synthetase, is involved in repair of single-strand DNA break.

[5] = tested on: HTLV-1; conditions: Non Patent Literature 5; cited from earlier work
[6] = tested on: Jurkat (non-HTLV-1-infected cell line); assay: Cellular proliferation (MTS assay), Jurkat; type: cell-based, human; conditions: 100 μM
Experimental: as §1, §2, §3

[7] = tested on: SUDHL6 (non-HTLV-1-infected cell line); assay: Cellular proliferation (MTS assay), SUDHL6; type: cell-based; conditions: 100 μM
Experimental: as §1, §2, §3

[8] = tested on: HTLV-1-producing cell line, HUT102 (derived from ATL); assay: Cellular proliferation test (MTS assay), HUT102; type: cell-based
Experimental: HTLV-1-producing cell lines, MT2 (transformant with HTLV-1, JCRB cell No: JCRB1210) and HUT102 (ATL-derived cell line, ATCC No: TIB-162), were used.
as §1
Abacavir was added to MT2 and HUT102 used in Example 1 at a concentration of 0 μM (DMSO was added instead of abacavir), 10 μM, 25 μM, 50 μM, 75 μM or 100 μM. The cells were seeded on a 96-well plate at a concentration of 1×10^4 cells/100 μL/well and cultured for 4 hours or 48 hours. […]

Q: For `Nc1nc(NC2CC2)c2ncn([C@H]3C=C[C@@H](CO)C3)c2n1` [abacavir, (−)-(1S,4R)-4-[2-amino-6-(cyclopropylamino)-9H-purin-9-yl]-2-cyclopentene-1-methanol], which cellular proliferation [1] is on record?
A: did not exhibit a suppressive effect

Q: And the cellular proliferation ([2]; 100 μM)?
A: strong suppressive effect

Q: What about the “cellular proliferation, dose dependence” value ([2]; 10-100 μM, Day 0, 2, 4) of the same compound?
A: suppressed cellular proliferation of all the cell lines in a dose-dependent manner

Q: And the cellular proliferation [3]?
A: did not exhibit a suppressive effect

Q: What about the “ratio of PARP positive cells” value [4] of the same compound?
A: induces Rad51, γH2AX, and PARP specifically in an ATL cell line

Q: What about the “ratio of Rad51 positive cells” value [4] of the same compound?
A: induces Rad51, γH2AX, and PARP specifically in an ATL cell line

Q: What about the “ratio of γH2AX positive cells” value [4] of the same compound?
A: induces Rad51, γH2AX, and PARP specifically in an ATL cell line

Q: And the anti-HTLV-1 effect [5]?
A: anti-HTLV-1 effect

Q: And the cellular proliferation [6]?
A: did not exhibit a suppressive effect

Q: And the cellular proliferation [7]?
A: did not exhibit a suppressive effect

Q: And the “cellular proliferation (ratio relative to solvent control on Day 0)” value ([8]; 100 μM, Day 0, 2, 4, compared among six NRTIs)?
A: most strongly suppressed

Q: And the “cellular proliferation, dose dependence” value ([8]; 10, 25, 50, 75, 100 μM, 48 hours)?
A: suppressed cellular proliferation of both cell lines in a dose-dependent manner
